Measurements: PubChem BioAssay (NCI)
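Cells were grown in 96-well plates and exposed to each compound for 48 hours at five concentrations; endpoints were interpolated linearly between bracketing concentrations, or set to the highest concentration if not reached. GI50 is the concentration that inhibits growth by half. TGI marks complete inhibition of growth.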

Experiments:
Experiment in all cases: inhibition of tumour cell growth, NCI panel, 48 h
[1] = test system: HCT-15 colon
[2] = test system: K-562 leukemia
[3] = test system: SNB-75 CNS
[4] = test system: HCC-2998 colon
[5] = test system: OVCAR-8 ovarian
[6] = test system: SW-620 colon
[7] = test system: UACC-62 melanoma
[8] = test system: SN12C renal
[9] = test system: OVCAR-4 ovarian
[10] = test system: IGROV1 ovarian

| Structure (SMILES) | GI50 [1] [µM] | TGI [1] [µM] | GI50 [2] [µM] | TGI [2] [µM] | GI50 [3] [µM] | TGI [3] [µM] | GI50 [4] [µM] | TGI [4] [µM] | GI50 [5] [µM] | TGI [5] [µM] | GI50 [6] [µM] | TGI [6] [µM] | GI50 [7] [µM] | TGI [7] [µM] | GI50 [8] [µM] | TGI [8] [µM] | GI50 [9] [µM] | TGI [9] [µM] | GI50 [10] [µM] | TGI [10] [µM] |
| --- | --- | --- | --- | --- | --- | --- | --- | --- | --- | --- | --- | --- | --- | --- | --- | --- | --- | --- | --- | --- |
| COc1cc(/C=C/C(=O)N2CCC=CC2=O)cc(OC)c1OC | 1.83 | 5.01 | 2.98 | > 100 | 36.6 | > 100 | 1.77 | 3.56 | 2.86 | 8.17 | 2.51 | 6.61 | 1.85 | 3.82 | 2.64 | 7.84 | 3.11 | 17.4 | 2.21 | 11.2 |
| C/C(=N/O)c1ccc2c(c1)/C(=N/O)c1ccccc1-2 | 17.1 | 33.7 | 15.8 | 32.4 | 17.7 | 44.2 | 20.3 | 35.9 | 21.4 | 46.4 | 19.3 | 44.2 | 18.3 | 37.5 | 19.8 | 44.5 | 15.1 | 45.4 | 22.3 | 41.1 |
| COc1ccc(Cl)cc1Nc1nc(C(F)(F)F)ccc1C(=O)N/N=C/c1cccnc1 | 1.42 | > 100 | 3.16 | > 100 | 3.87 | 49.7 | 1.99 | > 100 | 2.91 | > 100 | 4.07 | > 100 | 3.69 | > 100 | 7.78 | > 100 | 0.521 | > 100 | 4.33 | > 100 |
| O=c1ccc(=O)n(-c2ccccc2)[nH]1 |  | > 100 |  | > 100 |  | > 100 |  | > 100 |  | > 100 |  | > 100 |  | > 100 |  | > 100 |  | > 100 |  | > 100 |
| COc1cc2c(cc1O)CN1CCC23C=C[C@@H](O)CC13 (stereo not given in full) |  | > 100 |  | > 100 |  | > 100 |  | > 100 |  | > 100 |  | > 100 |  | > 100 |  | > 100 |  | > 100 |  | > 100 |
| O=S(=O)(c1ccccc1)N1CN2CN(C1)CN(S(=O)(=O)c1ccccc1)C2 |  | > 100 |  | > 100 |  | 66.1 |  | > 100 |  | > 100 |  | > 100 |  | > 100 |  | > 100 |  | > 100 |  | > 100 |
| O=C(N/N=C(/c1nc2ccc([N+](=O)[O-])cc2[nH]c1=O)C(O)c1ccc([N+](=O)[O-])cc1)c1ccncc1 (stereo not given) |  | > 100 |  | > 100 |  | > 100 |  | > 100 |  | > 100 |  | > 100 |  | > 100 |  | > 100 |  | > 100 |  | > 100 |
| COc1ccc(S(=O)(=O)N[C@H](C(=O)O)c2ccccc2)cc1 |  | > 100 |  | > 100 |  | > 100 |  | > 100 |  | > 100 |  | > 100 |  | > 100 |  | > 100 |  | > 100 |  | > 100 |
| CCN(CC)CC(=O)NC1c2ccccc2Oc2c(C)cccc21 (stereo not given) |  | > 100 |  | > 100 |  | > 100 |  | > 100 |  | > 100 |  | > 100 |  | > 100 |  | > 100 |  | > 100 |  | > 100 |
| Cc1nc(-c2cnc(NC(C)C)n(C)c2=O)ccc1Oc1ccnc(-c2cnn(C)c2)c1 | 5.51 | > 100 | 1.64 | 9.33 | 12.3 | 47.7 | 24 | > 100 | 21.3 | > 100 | 5.49 | > 100 | 4.84 | 45.7 | 19.7 | > 100 | 7.28 | > 100 | 15 | > 100 |
| C=C1C(=O)O[C@H]2[C@H]1CC/C(Cn1cc(-c3cccc(Cl)c3)nn1)=C\CC[C@@]1(C)O[C@@H]21 | 0.192 | 0.479 | 0.405 | 2.44 | 1.16 | 2.39 | 1.64 | 3.29 | 1.31 | 2.85 | 0.33 | 1.2 | 0.625 | 2.08 | 1.4 | 3.35 | 1.09 | 2.44 | 0.73 | 2.41 |
| Cc1ccc(-c2nc(N3CCNCC3)c3oc(-c4ccccc4)nc3n2)cc1 | 1.69 | 3.2 | 1.61 | 3.55 | 1.62 | 3.02 | > 100 | > 100 | 1.95 | 4.15 | 2.06 | 3.88 | 1.74 | 3.19 | 1.8 | 3.3 | 1.89 | 4.06 | 1.87 | 3.64 |
| COc1cc(/C=C/C(=O)/C=C/c2cc3ccc(Cl)cc3n(Cc3ccccc3)c2=O)ccc1O | 1.24 | 4.01 | 1.89 | > 100 | 2.52 | 7.42 | 1.98 | 3.48 | 0.497 | 11.7 | 1.56 | 4.33 | 1.29 | 3.71 | 1.95 | 5.01 | 2.48 | 37.8 | 1.74 | 4.53 |
| COc1cccc(C2=C(c3cn(C)c4cc(F)ccc34)C(=O)NC2=O)c1 | 12.7 | > 25 | 12.4 | > 25 | 2.42 | > 25 | > 25 | > 25 | > 18.2 | > 25 | 13.1 | > 25 | 14.3 | > 25 | > 21.5 | > 25 | > 8.37 | > 25 | > 25 | > 25 |
